Read-outs that look alike come from different tables or passages of the source.

One series has as its target T1, CYP3A4 (Homo sapiens, UniProt P08684).
T1 construct: purchased Merck
Put plainly: in vitro. In kind it is biochemical. The conditions noted are these: testosterone 5 μM. From the text:
Testosterone and 6β-hydroxytestosterone were detected at 240 nm.

Another series deals with T2, OATP1A2 (Homo sapiens, UniProt P46721).
T2 construct: expressed in transfected cells; host or cells: A431
T2 sequence (P46721 1-670): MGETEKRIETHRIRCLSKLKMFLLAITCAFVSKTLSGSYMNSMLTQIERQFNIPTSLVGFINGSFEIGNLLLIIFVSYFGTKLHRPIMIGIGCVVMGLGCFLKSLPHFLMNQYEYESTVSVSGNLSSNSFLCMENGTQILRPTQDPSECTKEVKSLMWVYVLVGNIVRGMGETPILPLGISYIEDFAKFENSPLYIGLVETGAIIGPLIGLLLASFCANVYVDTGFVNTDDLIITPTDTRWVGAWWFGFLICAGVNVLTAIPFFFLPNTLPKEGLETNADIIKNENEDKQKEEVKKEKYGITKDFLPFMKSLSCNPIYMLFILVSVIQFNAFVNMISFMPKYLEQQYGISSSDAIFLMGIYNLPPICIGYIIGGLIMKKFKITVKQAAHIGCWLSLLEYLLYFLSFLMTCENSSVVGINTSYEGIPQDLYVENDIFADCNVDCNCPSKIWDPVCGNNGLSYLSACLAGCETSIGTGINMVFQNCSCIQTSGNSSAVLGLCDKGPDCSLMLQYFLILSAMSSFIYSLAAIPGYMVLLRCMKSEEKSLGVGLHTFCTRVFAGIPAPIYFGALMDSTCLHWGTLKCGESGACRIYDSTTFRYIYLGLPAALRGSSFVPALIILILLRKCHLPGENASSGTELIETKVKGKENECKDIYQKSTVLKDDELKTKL
As to the kind of experiment: OATP1A2-mediated SR101 uptake in overexpressing A431 cells. In kind it is cell-based. On the procedure:
(§1) The human epidermoid carcinoma cell (A431) overexpressing OATP1A2, OATP1B1, OATP1B3, or OATP2B1 transporters and their mock control cells were generated previously as described. , Cell culture was maintained in DMEM supplemented with 10% fetal bovine serum, 2 mM L-glutamine, 100 units/mL penicillin, and 100 μg/mL streptomycin at 37 °C and 5% CO2.
(§2) The inhibitory effects of mycotoxins (Z14S and Z14GA) were examined using indirect fluorescence assays, where pyranine and SR101 were used as fluorescent substrates. , A431 cells overexpressing OATP1A2, OATP1B1/3, or OATP2B1 and their mock-transfected controls were seeded at a density of 8 × 10^4 cells/well onto 96-well plates and incubated for 18–22 h prior to transport measurements. The next day, plated cells were washed three times with 200 μL of PBS (phosphate-buffered saline, pH 7.4) and preincubated with 50 μL of transport buffer (pH 5.5; 125 mM NaCl, 4.8 mM KCl, 1.2 mM CaCl2, 1.2 mM KH2PO4, 12 mM MgSO4, 25 mM MES, and 5.6 mM glucose) with or without increasing concentrations of the mycotoxins tested (0.001–20 μM) for 5 min at 37 °C. The transport inhibition measurements were initiated by adding 50 μL of transport buffer containing the proper fluorescent substrate SR101 (0.5 μM, OATP1A2) or pyranine (10 μM for OATP1B1 or 20 μM for OATP1B3 and OATP2B1). After 10 min (OATP1A2), 15 min (OATP1B1 and OATP2B1), or 30 min (OATP1B3) incubation, the transport was terminated by washing the cells three times with ice-cold PBS. […] Using an Enspire plate reader (PerkinElmer, Waltham, MA), the fluorescence was measured at excitation/emission wavelengths of 460/510 nm (pyranine) or 586/605 nm (SR101).
(§3) OATP-mediated transport was obtained by subtracting the activity of the mock control cells from the activity of the OATP-expressing cells. The transport activity (%) of the OATPs was calculated by comparing the fluorescence signal obtained in the absence of the compounds tested (set to 100%).

A further series concerns the target T3, OATP1B3 (Homo sapiens, UniProt Q9NPD5).
T3 construct: expressed in transfected cells; host or cells: A431
T3 sequence (Q9NPD5 1-702): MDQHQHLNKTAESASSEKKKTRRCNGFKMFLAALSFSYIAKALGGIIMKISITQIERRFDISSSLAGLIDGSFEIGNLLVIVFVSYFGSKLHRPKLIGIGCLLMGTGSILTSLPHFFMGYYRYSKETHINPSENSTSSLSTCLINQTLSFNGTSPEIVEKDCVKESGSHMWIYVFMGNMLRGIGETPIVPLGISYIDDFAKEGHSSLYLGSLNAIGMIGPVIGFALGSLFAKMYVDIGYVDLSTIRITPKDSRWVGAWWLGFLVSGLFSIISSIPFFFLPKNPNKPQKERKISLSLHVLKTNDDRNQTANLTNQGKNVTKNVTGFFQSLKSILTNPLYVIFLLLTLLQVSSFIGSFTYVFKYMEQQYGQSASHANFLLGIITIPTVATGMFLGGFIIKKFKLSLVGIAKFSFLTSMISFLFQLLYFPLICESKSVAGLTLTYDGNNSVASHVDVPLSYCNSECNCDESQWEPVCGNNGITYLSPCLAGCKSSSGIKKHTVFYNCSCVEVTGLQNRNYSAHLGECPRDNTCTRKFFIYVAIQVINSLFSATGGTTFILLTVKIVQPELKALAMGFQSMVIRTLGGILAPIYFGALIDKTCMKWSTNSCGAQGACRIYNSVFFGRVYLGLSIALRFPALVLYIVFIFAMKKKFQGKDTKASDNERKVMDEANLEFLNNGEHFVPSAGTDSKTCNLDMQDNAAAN
As to the kind of experiment: OATP1B3-mediated pyranine uptake in overexpressing A431 cells. The class given is cell-based. How it is done: as §1, §2, §3

T1 sequence (P08684 whole entry): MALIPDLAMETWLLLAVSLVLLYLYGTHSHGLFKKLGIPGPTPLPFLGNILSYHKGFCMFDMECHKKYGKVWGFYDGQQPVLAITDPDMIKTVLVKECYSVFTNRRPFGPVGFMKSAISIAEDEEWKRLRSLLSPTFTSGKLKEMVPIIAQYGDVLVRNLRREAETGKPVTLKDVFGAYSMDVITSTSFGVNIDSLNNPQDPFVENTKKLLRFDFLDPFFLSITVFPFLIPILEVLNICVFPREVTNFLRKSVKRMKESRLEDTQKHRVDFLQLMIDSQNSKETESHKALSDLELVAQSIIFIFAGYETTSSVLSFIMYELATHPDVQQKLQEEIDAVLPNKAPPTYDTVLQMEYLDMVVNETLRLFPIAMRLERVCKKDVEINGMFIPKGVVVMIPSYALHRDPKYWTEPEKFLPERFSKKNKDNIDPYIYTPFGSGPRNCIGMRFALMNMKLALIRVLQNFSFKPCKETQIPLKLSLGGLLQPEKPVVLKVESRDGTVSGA

Regarding `C[C@H]1CCCC(=O)CCC/C=C/c2cc(OS(=O)(=O)O)cc(O)c2C(=O)O1` [Z14S, zearalenone-14-sulfate], the inhibition at 180 min, 20 μM on CYP3A4 (human, pH 7.5, each 20 μM, read-out: inhibition of CYP3A4 (decrease in metabolite formation)) was roughly 45%. For the same compound, the IC50 came to 1.4 µM against OATP1A2 and 2.3 µM against OATP1B3. In addition, the “decrease in OATP1A2 transport activity” value at OATP1A2 (20 μM, SR101 substrate, A431 cells) is 80–100%. Besides, the “decrease in OATP1B3 transport activity” value on OATP1B3 (20 μM, pyranine substrate, A431 cells) is given as 80–100%.
Regarding `C[C@H]1CCCC(=O)CCC/C=C/c2cc(O[C@@H]3O[C@H](C(=O)O)[C@@H](O)[C@H](O)[C@H]3O)cc(O)c2C(=O)O1` [Z14GA, Zearalenone-14-glucuronide], the “inhibition of CYP3A4 (decrease in metabolite formation)” value on CYP3A4 (each 20 μM, 180 min) is on record as “no effects”. Also, the IC50 at OATP1A2 (SR101 0.5 μM, 10 min, A431 cells, read-out: IC50 for OATP1A2) was greater than 20 µM; at OATP1B3 (pyranine 20 μM, 30 min, A431 cells, read-out: IC50 for OATP1B3) it was greater than 20 µM.
